Measured values taken from ChEMBL document CHEMBL1123480, “Pyrazole derivatives. 5. Synthesis and antineoplastic activity of 3-(2-chloroethyl)-3,4-dihydro-4-oxopyrazolo[5,1-d]-1,2,3, 5-tetrazine-8-carboxamide and related compounds” (J Med Chem, 1986).
Activity calls are given as the source filed them.

Legend:
Mus musculus = species on record: Mus musculus; assay: Antineoplastic activity against mammary adenocarcinoma M16c cell; IA=Inactive; assay type: functional
P388 = assay: Antineoplastic activity against NCI P388 cell; IA=Inactive; assay type: functional, cell-based; conditions: Mus musculus
L1210 = assay: Antineoplastic activity against L1210 cell line; IA=Inactive; assay type: functional, cell-based; conditions: Mus musculus

Measured: Activity

Cn1nnc2c(C(N)=O)cnn2c1=O
inactive: all assays above
